Where “and” joins values, the source holds several entries; their conditions need not be identical. Equal entries are not always repeated.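 Following 48 hours of exposure in 96-well plates, responses at five concentrations were used to interpolate endpoints linearly. GI50: concentration for 50% inhibition of growth. The concentration for full growth arrest is given as TGI.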
What was measured:
Assay in all cases: NCI tumour cell line growth inhibition, 48 h
[1] = test system: COLO 205 colon
[2] = test system: HCC-2998 colon
[3] = test system: HT29 colon
[4] = test system: MALME-3M melanoma
[5] = test system: SR leukemia
[6] = test system: TK-10 renal
[7] = test system: ACHN renal
[8] = test system: CCRF-CEM leukemia
[9] = test system: DU-145 prostate
[10] = test system: PC-3 prostate

Compound	TGI [1]	TGI [2]	TGI [3]	TGI [4]	TGI [5]	TGI [6]	TGI [7]	TGI [8]	TGI [9]	TGI [10]	GI50 [7]	GI50 [8]	GI50 [1]	GI50 [2]	GI50 [3]	GI50 [10]	GI50 [5]	GI50 [6]	GI50 [9]	GI50 [4]
CC(=O)OC1CCn2nnc(CO)c21 (stereo not given)	> 100 µM	> 100 µM	> 100 µM	> 100 µM	> 100 µM	> 100 µM														
COc1cc(Nc2nc3ccccc3nc2NS(=O)(=O)c2ccc(NC(=O)c3ccc(C)c(OC)c3)cc2)cc(OC)c1		> 100 µM and 37.7 µM and > 8.5 µM	> 100 µM		51.2 µM and 49.1 µM and > 10 µM	37.6 µM and 54.1 µM and > 6.03 µM	48.7 µM and 62.8 µM and > 10 µM	> 100 µM and 71.6 µM and > 10 µM	> 100 µM	> 100 µM and 74.9 µM and > 6.71 µM										
CN1CC(=O)N(C)c2ncn(Cc3ccccc3)c2C1=O	> 100 µM	> 100 µM	> 100 µM	> 100 µM	> 100 µM	> 100 µM	> 100 µM	> 100 µM												
COC(=O)CC[C@]1(C)O[C@H]2[C@H]([C@@H](C)CCCC(C)=O)OC(=O)[C@@H]2C[C@H]1O	> 100 µM	> 100 µM	> 100 µM		> 100 µM	> 100 µM	> 100 µM	> 100 µM		> 100 µM	> 100 µM	> 100 µM	> 100 µM	29.1 µM	> 100 µM	> 100 µM	> 100 µM	68.7 µM		
CC1=C(C(=O)Nc2ccc(Cl)c(Cl)c2)C(c2cccc(Cl)c2)NC(=O)N1 (stereo not given)	21.2 µM				> 50 µM	0.346 µM	20.8 µM		14.3 µM	> 50 µM	9.07 µM		9.42 µM			> 50 µM	22.3 µM	0.22 µM	7.58 µM	
Cc1ccc(NC2=C(Cl)C(=O)N(Cc3ccc(Cl)cc3)C2=O)cc1O	41 µM			26.9 µM	> 100 µM	32.4 µM		60 µM	40.6 µM	35.6 µM		4.64 µM	10.7 µM			5.5 µM	71.4 µM	15.2 µM	14.9 µM	5.23 µM
O=C(O)NC(c1ccccc1)C(NC(=O)c1ccccc1)c1ccccc1 (stereo not given)	> 100 µM		> 100 µM	> 100 µM	> 100 µM	> 100 µM	> 100 µM													
O=C(O)Cc1cc(=O)[nH]c2c1/C(=N/O)CCC2		> 100 µM	> 100 µM	> 100 µM	> 100 µM	> 100 µM	> 100 µM	> 100 µM												
COc1ccc(C(=O)C(C(=O)CC(=O)Nc2cccc(C(F)(F)F)c2)c2ccc(OC)cc2)cc1 (stereo not given)	> 100 µM	> 100 µM	> 100 µM	> 100 µM	> 100 µM		> 100 µM	> 100 µM												
O=C(CCc1nnc2s/c(=C\c3ccc(Cl)c(Cl)c3)c(=O)n12)Nc1ccc(Cl)c(Cl)c1	> 100 µM	> 100 µM	> 100 µM	> 100 µM	74 µM	> 100 µM	> 100 µM	60.2 µM												
O=C1O/C(=C\c2ccccc2)N(c2ccccc2)C1=O	> 100 µM	> 100 µM	> 100 µM		> 100 µM	> 100 µM	> 100 µM	> 100 µM	> 100 µM	> 100 µM										
CC(=O)c1cccc(C)c1C(=O)O	> 100 µM	> 100 µM	> 100 µM	> 100 µM	> 100 µM	> 100 µM	> 100 µM	> 100 µM												
O=C1O[C@H](c2ccccc2)[C@@H]2CC3(CCN12)OCCO3	> 100 µM		> 100 µM		> 100 µM	> 100 µM	> 100 µM	> 100 µM												
CCN(CC)CCCNC(=O)C1COc2cc(-c3cc(=O)c4ccccc4o3)ccc2O1 (stereo not given)	81.4 µM	> 100 µM	> 100 µM	36.8 µM	47.9 µM	> 100 µM	> 100 µM	> 100 µM												
NC1CCC(Nc2nc(NCc3ccc(-c4ccccc4O)nc3)c3ncn(C4CCCC4)c3n2)CC1 (stereo not given)	0.0278 µM	0.515 µM	0.21 µM		1.35 µM	1.33 µM	1.07 µM	1.22 µM	1.16 µM	1.02 µM	0.14 µM	< 0.01 µM	0.012 µM	0.0229 µM	< 0.01 µM	0.0275 µM	0.0354 µM	0.0306 µM	0.0344 µM	
N#CC1=C(N)Oc2c(ccc3ccccc23)C1c1ccccc1 (stereo not given)	1.23 µM	6.67 µM	11.1 µM		22.4 µM	27 µM	14.8 µM	41.5 µM	12.8 µM	16.8 µM	0.0681 µM	0.0437 µM	0.19 µM	0.141 µM	0.146 µM	0.0454 µM	0.0336 µM	7.57 µM	0.0468 µM	
NC(=O)CCC(Nc1c2ccccc2nc2ccccc12)C(=O)O (stereo not given)	> 100 µM	> 100 µM	> 100 µM	> 100 µM	> 100 µM	> 100 µM	> 100 µM	> 100 µM												
COc1ccc2c3c([nH]c2c1[N+](=O)[O-])C(C)N(Cc1ccc([N+](=O)[O-])cc1)CC3 (stereo not given)	35.8 µM	37.3 µM	35.3 µM		> 100 µM	> 100 µM	> 100 µM	> 100 µM												
Cc1cccc(C)c1CO	> 100 µM	> 100 µM	> 100 µM	> 100 µM	> 100 µM		> 100 µM	> 100 µM												
CC(=O)CC(N)=O	> 100 µM	> 100 µM	> 100 µM	> 100 µM	> 100 µM	> 100 µM	> 100 µM	> 100 µM												
COC(=O)C1=C(O)c2cc(-c3ccccc3)c(-c3ccccc3)c(C#N)c2NC(=O)C1	> 100 µM	> 100 µM	> 100 µM		> 100 µM		> 100 µM	> 100 µM												
CNC/C(Cl)=N/S(=O)(=O)c1ccc(C)cc1	38.2 µM	16.2 µM	60.4 µM	27.5 µM	34.9 µM	28.6 µM	35.8 µM		18.1 µM	22.8 µM										
O=C(O)c1ccc(Oc2nccc(-c3c(-c4ccc(F)cc4)ncn3C3CCNCC3)n2)cc1	> 25 µM	> 25 µM	> 25 µM	> 25 µM		> 25 µM	> 25 µM		> 25 µM	> 25 µM	> 25 µM		> 25 µM	> 25 µM	> 25 µM	> 25 µM		> 25 µM	> 25 µM	> 25 µM

From PubChem BioAssay (NCI)
